Measurements: patent US20090247559A1 (Exelixis, Inc., priority 2007, published 2009)
pIC50: −log10 of the molar value. Where a name gives a salt, the structure may show the parent alone. Read-outs that look alike come from different tables or passages of the source.

What was measured:
CK2 = CK2 (Homo sapiens, UniProt P68400); assay: CK2 inhibition, biochemical chemiluminescence holoenzyme assay (Kinase Glo, IC50 determination); conditions: Table 1 activity class; symbol given only if active; read-out: CK2 IC50 (Activity C)
Chain of CK2 (P68400 whole entry): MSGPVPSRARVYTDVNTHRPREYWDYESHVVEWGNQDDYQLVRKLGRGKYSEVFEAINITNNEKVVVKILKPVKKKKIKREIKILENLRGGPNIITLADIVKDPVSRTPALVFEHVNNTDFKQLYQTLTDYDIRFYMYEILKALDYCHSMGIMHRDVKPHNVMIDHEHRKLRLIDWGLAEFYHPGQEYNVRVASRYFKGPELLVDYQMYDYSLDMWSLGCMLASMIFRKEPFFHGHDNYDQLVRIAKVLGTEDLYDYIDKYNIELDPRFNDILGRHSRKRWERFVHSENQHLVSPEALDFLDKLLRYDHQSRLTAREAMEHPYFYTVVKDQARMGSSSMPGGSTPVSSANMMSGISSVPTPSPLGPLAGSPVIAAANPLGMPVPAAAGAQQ
Chain of CK2 (P67870 whole entry partner): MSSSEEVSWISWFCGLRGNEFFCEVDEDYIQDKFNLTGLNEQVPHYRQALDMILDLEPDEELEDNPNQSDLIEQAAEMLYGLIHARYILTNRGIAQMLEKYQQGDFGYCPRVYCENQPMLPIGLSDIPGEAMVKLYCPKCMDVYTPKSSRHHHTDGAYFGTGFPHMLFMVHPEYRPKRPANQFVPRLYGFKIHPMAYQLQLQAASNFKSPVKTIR
Outline: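 Holoenzyme CK2 assay; compounds pre-incubated with substrate and enzyme, then reacted 150 min at 24-27° C. Remaining ATP measured as luminescence with Kinase Glo, and IC50 derived from the signal.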

CDC7 = CDC7 (Homo sapiens, UniProt O00311); assay: CDC7 inhibition, biochemical chemiluminescence assay (Kinase Glo, IC50 determination)
Chain of CDC7 (O00311 whole entry): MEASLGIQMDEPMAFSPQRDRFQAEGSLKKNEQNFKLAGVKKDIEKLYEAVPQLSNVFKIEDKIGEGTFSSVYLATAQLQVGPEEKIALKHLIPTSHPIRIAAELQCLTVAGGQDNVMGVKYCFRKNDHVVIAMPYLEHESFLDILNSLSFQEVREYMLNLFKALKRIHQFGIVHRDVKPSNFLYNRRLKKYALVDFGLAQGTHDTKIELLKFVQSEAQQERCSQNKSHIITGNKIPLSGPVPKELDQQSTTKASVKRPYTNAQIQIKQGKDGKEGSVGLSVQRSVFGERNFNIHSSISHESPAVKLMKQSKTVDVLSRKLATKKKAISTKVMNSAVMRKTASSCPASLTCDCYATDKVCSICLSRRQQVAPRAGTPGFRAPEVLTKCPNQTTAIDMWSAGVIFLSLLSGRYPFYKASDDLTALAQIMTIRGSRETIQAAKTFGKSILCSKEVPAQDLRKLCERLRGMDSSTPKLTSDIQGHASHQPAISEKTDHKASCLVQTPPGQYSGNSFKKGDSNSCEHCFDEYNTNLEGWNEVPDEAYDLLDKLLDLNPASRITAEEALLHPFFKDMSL
Chain of CDC7 (Q9UBU7 whole entry partner): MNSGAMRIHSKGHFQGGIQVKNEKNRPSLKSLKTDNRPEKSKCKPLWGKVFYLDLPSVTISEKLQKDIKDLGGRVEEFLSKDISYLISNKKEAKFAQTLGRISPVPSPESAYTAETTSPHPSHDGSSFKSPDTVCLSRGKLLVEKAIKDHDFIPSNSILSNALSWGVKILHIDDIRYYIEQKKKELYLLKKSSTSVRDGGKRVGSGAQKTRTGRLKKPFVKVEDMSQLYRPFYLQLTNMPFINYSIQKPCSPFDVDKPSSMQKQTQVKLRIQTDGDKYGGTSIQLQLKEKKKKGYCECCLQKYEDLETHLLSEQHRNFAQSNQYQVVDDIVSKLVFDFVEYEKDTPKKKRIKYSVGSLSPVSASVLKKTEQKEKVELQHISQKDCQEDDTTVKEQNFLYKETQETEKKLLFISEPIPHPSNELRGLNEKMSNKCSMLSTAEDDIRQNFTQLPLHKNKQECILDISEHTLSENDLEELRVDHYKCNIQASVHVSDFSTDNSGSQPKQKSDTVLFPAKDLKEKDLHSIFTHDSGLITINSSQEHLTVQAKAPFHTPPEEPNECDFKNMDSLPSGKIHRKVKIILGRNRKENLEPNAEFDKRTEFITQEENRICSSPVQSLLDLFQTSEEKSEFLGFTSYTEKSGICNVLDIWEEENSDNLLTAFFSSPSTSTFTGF
Outline: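 CDC7 enzyme preincubated with compound 10 min at ambient temperature, then ATP mix in Tris Base added; reaction 90 min at 24-27 °C. Remaining ATP quantified by Kinase Glo luminescence to give IC50.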

[1] = biological target: PIM (PIM-1, PIM-2, and/or PIM-3); assay: PIM-1, PIM-2 and PIM-3 inhibition, biochemical chemiluminescence assays (Kinase Glo, IC50 determination); conditions: Table 1 activity class; PIM refers to PIM-1, PIM-2, and/or PIM-3; read-out: PIM IC50 (Activity B)
[2] = Table 1 activity class, symbol given only if active, read-out: CDC7 IC50 (Activity A)
[3] = compounds in Table 1, read-out: CDC7 IC50 value

| pIC50 (CK2) | pIC50 [1] | pIC50 (CDC7; [2]) | pIC50 (CDC7; [3]) | Structure (SMILES) | pIC50 (CDC7; CDC7 IC50 (Activity A), Table 1 activity class, symbol given only if active) | pIC50 (CDC7; CDC7 IC50 value, compounds in Table 1) |
| --- | --- | --- | --- | --- | --- | --- |
| > 5.00 | > 5.00 | > 5.00 | > 7.00 | COc1ccc2oc3c(=O)[nH]c([C@@H]4CC(F)(F)CN4)nc3c2c1 [Compound 531, 2-[(2S)-4,4-difluoropyrrolidin-2-yl]-8-(methyloxy)[1]benzofuro[3,2-d]pyrimidin-4(3H)-one] |  |  |
| > 5.00 | > 5.00 | > 5.00 | > 7.00 | COc1ccc2oc3c(=O)[nH]c([C@@H]4C[C@@H](F)CN4)nc3c2c1 [Compound 532, 2-[(2S,4R)-4-fluoropyrrolidin-2-yl]-8-(methyloxy)[1]benzofuro[3,2-d]pyrimidin-4(3H)-one] |  |  |
| > 5.00 | > 5.00 | > 5.00 | > 7.00 | C[C@H](N)c1nc2c(oc3ccc(Cl)cc32)c(=O)[nH]1 [Compound 533, 2-[(1S)-1-aminoethyl]-8-chloro[1]benzofuro[3,2-d]pyrimidin-4(3H)-one] |  |  |
| > 5.00 | > 5.00 | > 5.00 | > 7.00 | O=c1[nH]c(C2CCCCN2)nc2c1oc1ccc(Br)cc12 (centres unmarked) [Compound 534, 8-Bromo-2-piperidin-2-yl[1]benzofuro[3,2-d]pyrimidin-4(3H)-one hydrochloride] |  |  |
| > 5.00 | > 5.00 | > 5.00 |  | NC(Cc1cccs1)c1nc2c(oc3ccc(Br)cc32)c(=O)[nH]1 (centres unmarked) [Compound 538, 2-[1-amino-2-(2-thienyl)ethyl]-8-bromo[1]benzofuro[3,2-d]pyrimidin-4(3H)-one] |  |  |
| > 5.00 | > 5.00 | > 5.00 | > 7.00 | CC(C)[C@H](N)c1nc2c(oc3ccc(Br)cc32)c(=O)[nH]1 [Compound 540, 2-[(1S)-1-amino-2-methylpropyl]-8-bromo[1]benzofuro[3,2-d]pyrimidin-4(3H)-one] |  |  |
| > 5.00 | > 5.00 | > 5.00 | > 7.00 | NC1(c2nc3c(oc4ccc(Br)cc43)c(=O)[nH]2)CCCC1 [Compound 543, 2-(1-aminocyclopentyl)-8-bromo[1]benzofuro[3,2-d]pyrimidin-4(3H)-one] |  |  |
| > 5.00 | > 5.00 | > 5.00 | > 7.00 | NC1(c2nc3c(oc4ccc(Br)cc43)c(=O)[nH]2)CCC1 [Compound 544, 2-(1-aminocyclobutyl)-8-bromo[1]benzofuro[3,2-d]pyrimidin-4(3H)-one] |  |  |

| Structure (SMILES) | pIC50 (CK2) | pIC50 [1] | pIC50 (CDC7; [2]) | pIC50 (CDC7; [3]) | pIC50 (CDC7; CDC7 IC50 (Activity A), Table 1 activity class, symbol given only if active) | pIC50 (CDC7; CDC7 IC50 value, compounds in Table 1) |
| --- | --- | --- | --- | --- | --- | --- |
| O=c1[nH]c([C@@H]2CC3CCCCC3N2)nc2c1oc1ccc(Cl)cc12 (stereo partly drawn) [Compound 529, 8-chloro-2-[(2S)-octahydro-1H-indol-2-yl][1]benzofuro[3,2-d]pyrimidin-4(3H)-one] | > 5.00 | > 5.00 |  |  | > 5.00 | > 7.00 |
